Reference: patent US6362010B1, “Methods and compositions for release of CD3430 cells from affinity matrices” (priority 1995, dated 2002)
Like-named read-outs stand apart in the source and are kept apart here.

Legend:
mAb12.8 [1] = type: binding; details: for binding to mAb12.8: ELISA of Example 2 part A / Example 3, FIG. 4, GM3 immobilized from methanol; for A450 (absorbance at 450 nm): 10 μg/mL mAb12.8
Procedure: Microtiter plates are prepared with serial dilutions of 3′SL-HSA (prepared as described in Example 1) in Tris-Ca^++ buffer (0.05M Tris HCl, pH 7.5, 0.15 M NaCl, 2 mM CaCl2), starting with 500 ng/well. The plates are incubated at 37° C. for 1 hour to immobilize the carbohydrate on the plastic well surface.
100 μl of 2% BSA in Tans-Cat^++ buffer is added to each well, and the plates are incubated at room temperature for 1 hour, and washed 3 times with Tris-Ca^++ buffer. 100 μl of 10 μg/mL mAb12.8 in 1% BSA Tris-Ca^++ buffer is then added to each well, and the plates are incubated at room temperature for 2 hours. Again, the plates are washed 3 times with Tris-Ca^++ buffer.
100 μl of 1 μg/mL peroxidase-labeled goat anti-mouse IgM (KPL, Inc., Gaithersburg, Md.) in 1% BSA Tris-Ca^++ buffer is added to each well, and the plates are incubated at room temperature for 1 hour, and washed 3 times with Tris-Ca^++ buffer. 100 μl of TMB (tetramethylbenzidine) substrate solution (KPL, Inc., Gaithersburg, Md.) is then added to each well, and the reaction is allowed to proceed for 2 minutes. The reaction is stopped, and detection enhanced, by the addition of 100 μl of 1M formic acid/well. The absorbance at 450 nm is then determined in a Titertek Multiskan MCC/340 plate reader (Flow Laboratories. Inc., McLean, Va.).
To illustrate the specificity of the interaction between 3′SL-HSA and mAb 12.8, and to further characterize the epitope of the antibody, the assay described in Example 2, part A, is performed using the control carbohydrates shown below:
The assays of each of the above HSA conjugates are performed as described for 3′SL-HSA. For GM3, the assay is as described above except that dilutions of GM3 are prepared in methanol, and immobilization on the plastic well surface is achieved by allowing the methanol to completely evaporate under an exhaust hood. After immobilization, 100 μl of 1% BSA in Tris-Ca^++ buffer is added to the wells containing GM3.

mAb12.8 [2] = test: ELISA, binding of defucosylated SLe^x epitope to mAb12.8 with and without α1,3,4 fucosidase treatment; parameters: species or system mouse; details: 250 ng per well, FIG. 3; for binding to mAb12.8 after fucosidase treatment: 200 units per well α1,3,4 fucosidase, 37° C. overnight
Procedure: In a related experiment, the binding of a partially defucosylated SLe^X epitope (coupled to HSA) is evaluated using a similar ELISA. […] 100 μl of 2% BSA in Tris-Ca^++ buffer is added to each well to block further non-specific binding, and the plates are incubated at room temperature for 1 hour, followed by 2 washes with Tris-Ca^++ buffer. 200 units per well of α1,3,4 fucosidase (New England Biolabs, Beverly, Mass.) in citrate buffer (pH 4.0) is then added to half of the wells. The plates are covered and incubated at 37° C. overnight.
The plates are then washed three times with Tris-Ca^++ buffer and mAb12.8 (100 μl of 10 μg/mL mAb12.8 in Tris-Ca^++ buffer) is then added to each well except for 1 negative control for each condition. The plates are incubated at room temperature for 2 hours.
The plates are then washed 3 times with Tris-Ca^++ buffer, and 100 μl of 1 μg/mL peroxidase-labeled goat anti-mouse IgM (KPL, Inc., Gaithersburg, Md.) in 1% BSA Tris-Ca^++ buffer is added to each well. The plates are incubated at room temperature for 1 hour. The wells are then washed 5 times with Tris-Ca^++ buffer, and 100 μl of TMB substrate solution (KPL, Gaithersburg, Md.) is added to each well, and the reaction is allowed to proceed for 2 minutes. The reaction is stopped, and detection enhanced, by the addition of 100 μl of IM formic acid/well. The absorbance at 450 nm is then determined in a Titertek Multiskan MCC/340 plate reader (Flow Laboratories, Inc., McLean, Va.).

mAb12.8 [3] = test: ELISA, effect of varying linker arm and carrier group on carbohydrate binding to mAb12.8; parameters: species or system mouse; details: 100 μl of carbohydrate at 0.5 μg/ml immobilized; 10 μg/ml mAb12.8; FIG. 2
Procedure: The effect of altering the chemical linker arm and carrier group on the 3′SL binding to mAb12.8 is evaluated using the following carbohydrates, prepared as described in example 1: 3′SL-APD-dendrimer. 3′SL-APD-BSA. 3′SL-APEA-BSA, 3′SL-APD-HSA and 6′SL-APD-HSA.
100 μl of each of the above carbohydrates is added to duplicate wells in a 96-well microtiter plate at 0.5 μg/ml. The plates are incubated overnight at 4° C. to immobilize the carbohydrates on the plastic well surface. The wells are then washed three times and filled with Tris-Cat^++ buffer (0.05 M Tris-HCl, pH 7.5, 0.15 M NaCl, 2 mM CaCl2) containing 1% BSA. The plates are then incubated for 1 hour at room temperature to block nonspecific binding.
The plates are washed three times with Tris-Ca^++ buffer and mAb 12.8 (100 μl of 10 μg/ml in Tris-Ca^++ buffer) is added to all wells except one negative control for each condition. The plates are incubated for an additional two hours at room temperature. […]
Wells are washed five times with Tris-Ca^++ buffer and 100 μl of tetramethylbenzidine solution (TMB substrate solution. KPL, Inc., Gaithersburg, Md.) is added. […] The microtiter plate is read in a Titertek Multiskan MCC/340 plate reader (Flow Laboratories, Inc., McLean, Va.) set at a wavelength of 450 nm.

[4] = test system: KG1A cells bound to mAb12.8; test: Parallel plate flow assay, inhibition of CD34+ (KG1A) cell binding to immobilized mAb12.8; type: cell-based; details: 200 ng carbohydrate per dish, 250 ng mAb12.8, wall shear stress 0.48 dynes/cm^2 for 2 minutes; FIG. 5
Procedure: This Example illustrates the use of a representative carbohydrate according to this invention to release KG1A cells (ATCC No. CCL246.1, Rockville, Md.) bound to mAb12.8.
Monoclonal antibody 12.8 is immobilized on 35 mm tissue culture dishes by adsorption, as shown below:
Each substrate is coated on the dish and incubated at 37° C. for 1 hour prior to adding the next substrate or running the flow assay. The flow assay utilizes a parallel plate flow chamber mounted on an inverted-stage microscope to visualize the adhesive interactions between cells and substrates. Each dish is attached to the flow chamber and mounted on the microscope stage.
To prevent binding of the cells to mAb12.8 by way of Fc receptors on the cell surface, human IgG ([…]) is added to the KG1A cells 10 minutes prior to the flow assay. In addition, 200 ng of 3′SL-HSA is added to dish 2, and 200 ng of 6′SL-HSA is added to dish 3, and flow is initiated such that the cells flow over the surface of the dish at a wall shear stress of 0.48 dynes/cm^2 for 2 minutes, prior to collecting images at 7 different locations on the dish. The images are then quantified, using video microscopy coupled to digital image processing, to determine the number of adherent cells in each image, and the number of cells in the 7 images are averaged.

Substance	binding to mAb12.8 (mAb12.8 [1])	binding to mAb12.8 after fucosidase treatment (mAb12.8 [2])	also measured
Neu5Acα2-3Galβ1-4Glcβ1-1Ceramide [GM3, reference compound]	does not bind		
Neu5Acα2-3Galβ1-4GlcNAcβ1-3Galβ1-4(Glc)-HSA		bind to mAb12.8	
Neu5Acα2-6Galβ1-4(Glc)-APD-HSA [6′SL-HSA, reference compound]	does not bind		binding to mAb12.8 (mAb12.8 [3]): does not bind
Neu5Acα2-3Galβ1-3GlcNAcβ1-3Galβ1-4(Glc)-APD-HSA [LSTa-HSA, reference compound]	does not bind		
Neu5Acα2-3Galβ1-4(Glc)-APD-HSA [3′SL-HSA]	binds to mAb12.8	no detectable effect on binding	A450 (absorbance at 450 nm) (mAb12.8 [1]; about 100 ng per well immobilized carbohydrate): greater than 1; A450 (absorbance at 450 nm) (mAb12.8 [1]; about 200 ng per well immobilized carbohydrate): ~3; A450 (absorbance at 450 nm) (mAb12.8 [1]; amounts less than about 70 ng/well immobilized carbohydrate): approximately 0.5; binding to mAb12.8 (mAb12.8 [2]; absence of fucosidase treatment): bind to mAb12.8; inhibition of binding of KG1A cells to mAb12.8 [4]: inhibits the binding of KG1A cells to mAb12.8
